Source: ChEMBL document CHEMBL5316324, “Discovery, Characterization, and Engineering of LvIC, an α4/4-Conotoxin That Selectively Blocks Rat α6/α3β4 Nicotinic Acetylcholine Receptors” (J Med Chem, 2023)
Peptide text beside a SMILES is read from it.

Legend:
[1] = molecular target: Neuronal acetylcholine receptor; alpha2/beta2 (Rattus norvegicus) (UniProt P12389+P12390); assay: Inhibition of rat alpha2/beta2 nAChR expressed in Stage V-VI Xenopus laevis Oocytes assessed as inhibition of acetylcholine-induced current at 10 uM in presence of acetylcholine by electrophysiological recording relative to control; assay type: cell-based; details: Oocyte
[2] = molecular target: Nicotinic acetylcholine receptor alpha6/alpha3/beta4 (Rattus norvegicus, UniProt P04757+P12392+P43143); assay: Inhibition of rat alpha6/alpha3beta4 nAChR expressed in Stage V-VI Xenopus laevis Oocytes assessed as inhibition of acetylcholine-induced current in presence of acetylcholine by electrophysiological recording; assay type: cell-based, Oocyte
Sequence of Nicotinic acetylcholine receptor alpha6/alpha3/beta4 (P04757 whole entry): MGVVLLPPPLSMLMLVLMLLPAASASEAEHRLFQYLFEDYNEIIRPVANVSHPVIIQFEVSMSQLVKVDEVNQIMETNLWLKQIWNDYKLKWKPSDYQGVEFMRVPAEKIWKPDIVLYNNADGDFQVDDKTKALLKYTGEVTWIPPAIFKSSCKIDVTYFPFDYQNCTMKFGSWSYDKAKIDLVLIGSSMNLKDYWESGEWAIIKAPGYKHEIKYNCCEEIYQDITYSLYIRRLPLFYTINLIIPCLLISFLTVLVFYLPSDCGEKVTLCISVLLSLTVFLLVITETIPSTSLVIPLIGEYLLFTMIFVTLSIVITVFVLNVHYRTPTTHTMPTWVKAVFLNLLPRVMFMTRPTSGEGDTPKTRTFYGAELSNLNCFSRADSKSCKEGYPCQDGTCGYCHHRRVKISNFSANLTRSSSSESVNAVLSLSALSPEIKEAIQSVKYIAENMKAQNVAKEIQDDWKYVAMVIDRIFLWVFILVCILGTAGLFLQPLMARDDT
Sequence of Nicotinic acetylcholine receptor alpha6/alpha3/beta4 (P12392 whole entry): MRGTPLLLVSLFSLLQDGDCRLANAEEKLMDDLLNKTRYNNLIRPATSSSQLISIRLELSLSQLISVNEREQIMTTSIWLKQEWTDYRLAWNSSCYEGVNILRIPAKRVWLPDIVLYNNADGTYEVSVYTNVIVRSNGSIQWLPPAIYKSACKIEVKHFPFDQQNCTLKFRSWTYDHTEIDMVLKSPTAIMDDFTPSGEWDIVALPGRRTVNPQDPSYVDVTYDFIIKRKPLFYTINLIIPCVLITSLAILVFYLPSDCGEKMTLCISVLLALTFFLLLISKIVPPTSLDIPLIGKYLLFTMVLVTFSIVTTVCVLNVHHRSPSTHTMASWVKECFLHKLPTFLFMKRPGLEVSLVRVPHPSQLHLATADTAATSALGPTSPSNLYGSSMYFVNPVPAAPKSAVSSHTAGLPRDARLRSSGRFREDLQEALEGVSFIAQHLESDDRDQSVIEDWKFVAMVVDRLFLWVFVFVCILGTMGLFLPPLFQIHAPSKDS
Sequence of Nicotinic acetylcholine receptor alpha6/alpha3/beta4 (P43143 whole entry): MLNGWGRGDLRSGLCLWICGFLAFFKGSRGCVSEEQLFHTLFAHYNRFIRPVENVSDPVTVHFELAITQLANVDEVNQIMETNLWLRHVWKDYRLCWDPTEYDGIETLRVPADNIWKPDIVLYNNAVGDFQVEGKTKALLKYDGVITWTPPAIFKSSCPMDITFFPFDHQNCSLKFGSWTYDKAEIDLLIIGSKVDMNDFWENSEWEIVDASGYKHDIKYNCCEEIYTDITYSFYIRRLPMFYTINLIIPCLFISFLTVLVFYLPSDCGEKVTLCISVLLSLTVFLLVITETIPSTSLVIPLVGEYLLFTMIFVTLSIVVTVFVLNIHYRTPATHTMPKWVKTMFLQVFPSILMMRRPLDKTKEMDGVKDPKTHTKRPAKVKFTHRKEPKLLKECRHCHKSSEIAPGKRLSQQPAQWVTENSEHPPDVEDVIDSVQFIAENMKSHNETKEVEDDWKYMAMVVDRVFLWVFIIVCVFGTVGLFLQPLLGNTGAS

[3] = molecular target: Nicotinic acetylcholine receptor alpha1/beta1/epsilon/delta (Mus musculus) (UniProt P04756+P09690+P02716+P20782); assay: Inhibition of mouse alpha1/beta1deltaepsilon nAChR expressed in Stage V-VI Xenopus laevis Oocytes assessed as inhibition of acetylcholine-induced current at 10 uM in presence of acetylcholine by electrophysiological recording relative to control; assay type: cell-based; details: Oocyte
Oocyte [4] = assay: Inhibition of rat alpha6/alpha3beta4 K57T mutant nAChR expressed in Stage V-VI Xenopus laevis Oocytes assessed as acetylcholine-induced current response at 1 uM in presence of 100 uM acetylcholine by electrophysiological recording relative to control; assay type: cell-based
Rattus norvegicus [5] = organism: Rattus norvegicus; assay: Inhibition of rat alpha6/alpha3 E195A mutant beta4 nAChR expressed in Stage V-VI Xenopus laevis Oocytes assessed as acetylcholine-induced current response at 1 uM in presence of 100 uM acetylcholine by electrophysiological recording relative to control; assay type: cell-based
[6] = molecular target: Nicotinic acetylcholine receptor alpha6/alpha3/beta2/beta3 (Rattus norvegicus) (UniProt P04757+P12390+P12391+P43143); assay: Inhibition of rat alpha6/alpha3beta2beta3 nAChR expressed in Stage V-VI Xenopus laevis Oocytes assessed as inhibition of acetylcholine-induced current at 10 uM in presence of acetylcholine by electrophysiological recording relative to control; assay type: cell-based; details: Oocyte
[7] = molecular target: Neuronal acetylcholine receptor subunit alpha-7 (Rattus norvegicus) (UniProt Q05941); assay: Inhibition of rat alpha7 nAChR expressed in Stage V-VI Xenopus laevis Oocytes assessed as inhibition of acetylcholine-induced current at 10 uM in presence of acetylcholine by electrophysiological recording relative to control; assay type: cell-based; details: Oocyte
Sequence of Neuronal acetylcholine receptor subunit alpha-7 (Rattus norvegicus) (Q05941 whole entry): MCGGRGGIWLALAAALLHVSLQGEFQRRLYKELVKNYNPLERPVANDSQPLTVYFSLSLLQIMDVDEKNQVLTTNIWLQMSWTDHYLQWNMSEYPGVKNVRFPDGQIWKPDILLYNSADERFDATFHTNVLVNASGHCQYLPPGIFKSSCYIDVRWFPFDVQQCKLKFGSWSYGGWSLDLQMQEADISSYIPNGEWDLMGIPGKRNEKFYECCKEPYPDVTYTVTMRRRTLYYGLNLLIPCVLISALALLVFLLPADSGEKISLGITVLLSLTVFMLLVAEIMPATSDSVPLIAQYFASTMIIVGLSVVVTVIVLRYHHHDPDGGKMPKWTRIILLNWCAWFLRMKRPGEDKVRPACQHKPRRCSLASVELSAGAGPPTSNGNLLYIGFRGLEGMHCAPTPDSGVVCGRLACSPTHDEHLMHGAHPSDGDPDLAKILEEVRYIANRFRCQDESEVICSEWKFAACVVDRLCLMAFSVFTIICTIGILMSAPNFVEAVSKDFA

[8] = molecular target: Neuronal acetylcholine receptor; alpha2/beta2 (Rattus norvegicus, UniProt P12389+P12390); assay: Inhibition of rat alpha2/beta2 nAChR expressed in Stage V-VI Xenopus laevis Oocytes assessed as inhibition of acetylcholine-induced current in presence of acetylcholine by electrophysiological recording; assay type: cell-based, Oocyte
Sequence of Neuronal acetylcholine receptor; alpha2/beta2 (P12389 whole entry): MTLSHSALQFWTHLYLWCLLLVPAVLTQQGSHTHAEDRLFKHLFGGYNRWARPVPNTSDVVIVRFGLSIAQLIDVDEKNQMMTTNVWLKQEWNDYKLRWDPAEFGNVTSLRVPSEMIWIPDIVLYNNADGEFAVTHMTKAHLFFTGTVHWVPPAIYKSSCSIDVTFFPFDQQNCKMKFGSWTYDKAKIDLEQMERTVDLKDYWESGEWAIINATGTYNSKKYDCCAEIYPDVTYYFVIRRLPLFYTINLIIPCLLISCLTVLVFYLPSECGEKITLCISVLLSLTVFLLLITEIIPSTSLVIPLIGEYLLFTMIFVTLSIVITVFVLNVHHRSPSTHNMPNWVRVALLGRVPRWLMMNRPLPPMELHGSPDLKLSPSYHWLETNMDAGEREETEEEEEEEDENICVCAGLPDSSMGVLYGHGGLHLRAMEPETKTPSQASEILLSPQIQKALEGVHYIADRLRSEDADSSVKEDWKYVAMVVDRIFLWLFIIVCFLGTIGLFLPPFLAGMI
Sequence of Neuronal acetylcholine receptor; alpha2/beta2 (P12390 whole entry): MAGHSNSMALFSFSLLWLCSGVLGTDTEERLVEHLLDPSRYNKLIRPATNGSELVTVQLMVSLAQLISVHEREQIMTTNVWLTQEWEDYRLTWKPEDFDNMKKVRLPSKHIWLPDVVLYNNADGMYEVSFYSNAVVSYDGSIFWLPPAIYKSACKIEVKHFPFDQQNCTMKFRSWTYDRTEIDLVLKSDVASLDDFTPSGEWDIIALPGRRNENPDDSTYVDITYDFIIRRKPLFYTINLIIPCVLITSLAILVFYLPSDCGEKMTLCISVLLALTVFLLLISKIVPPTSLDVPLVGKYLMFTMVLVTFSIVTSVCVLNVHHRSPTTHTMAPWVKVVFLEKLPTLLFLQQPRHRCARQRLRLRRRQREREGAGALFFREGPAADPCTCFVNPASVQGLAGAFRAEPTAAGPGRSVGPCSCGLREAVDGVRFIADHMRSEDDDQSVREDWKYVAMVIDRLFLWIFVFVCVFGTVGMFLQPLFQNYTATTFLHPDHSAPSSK

[9] = molecular target: T1, Nicotinic acetylcholine receptor alpha6/alpha3/beta4 (Rattus norvegicus) (UniProt P04757+P12392+P43143); assay: Inhibition of rat alpha6/alpha3beta4 nAChR expressed in Stage V-VI Xenopus laevis Oocytes assessed as acetylcholine-induced current response at 100 nM in presence of 100 uM acetylcholine by electrophysiological recording relative to control; assay type: cell-based; details: Oocyte
Oocyte [10] = assay: (§1) Inhibition of rat alpha6/alpha3 E34M mutant beta4 nAChR expressed in Stage V-VI Xenopus laevis Oocytes assessed as inhibition of acetylcholine-induced current by measuring recovery at 10 uM preincubated with compound for 5 mins followed by washout in presence of acetylcholine by electrophysiological recording; assay type: cell-based; set-up: scale not given: the % may be the effect or the level left
[11] = Inhibition of rat alpha6/alpha3beta4 I166S mutant nAChR expressed in Stage V-VI Xenopus laevis Oocytes assessed as inhibition of acetylcholine-induced current in presence of acetylcholine by electrophysiological recording; assay type: cell-based; details: Oocyte
[12] = molecular target: T1, Nicotinic acetylcholine receptor alpha6/alpha3/beta4 (Rattus norvegicus); assay: Inhibition of rat alpha6/alpha3beta4 nAChR expressed in Stage V-VI Xenopus laevis Oocytes assessed as acetylcholine-induced current response at 1 uM in presence of 100 uM acetylcholine by electrophysiological recording relative to control; assay type: cell-based; set-up: scale not given: the % may be the effect or the level left; details: Oocyte
[13] = Inhibition of rat alpha6/alpha3 E195A mutant beta4 nAChR expressed in Stage V-VI Xenopus laevis Oocytes assessed as inhibition of acetylcholine-induced current in presence of acetylcholine by electrophysiological recording; assay type: cell-based; details: Oocyte
Oocyte [14] = assay: Inhibition of rat alpha6/alpha3beta4 K57T mutant nAChR expressed in Stage V-VI Xenopus laevis Oocytes assessed as acetylcholine-induced current response at 100 uM in presence of 100 uM acetylcholine by electrophysiological recording relative to control; assay type: cell-based
[15] = molecular target: T1, Nicotinic acetylcholine receptor alpha6/alpha3/beta4 (Rattus norvegicus); assay: as §1, with “alpha6/alpha3beta4” for “alpha6/alpha3 E34M mutant beta4”, “recovery time” for “recovery”; assay type: cell-based; details: Oocyte
Rattus norvegicus [16] = organism: Rattus norvegicus; assay: Selectivity index, ratio of IC50 for rat alpha6/alpha3beta4 K57T mutant nAChR expressed in Stage V-VI Xenopus laevis oocytes to IC50 for rat alpha6/alpha3beta4 nAChR expressed in Stage V-VI Xenopus laevis Oocytes by electrophysiological recording; assay type: cell-based
Oocyte [17] = assay: as §1, with “E195A” for “E34M”, “recovery time” for “recovery”; assay type: cell-based
[18] = Inhibition of rat alpha6/alpha3beta4 K57T mutant nAChR expressed in Stage V-VI Xenopus laevis Oocytes assessed as inhibition of acetylcholine-induced current in presence of acetylcholine by electrophysiological recording; assay type: cell-based; details: Oocyte
Oocyte [19] = assay: Inhibition of rat alpha6/alpha3 E34M mutant beta4 nAChR expressed in Stage V-VI Xenopus laevis Oocytes assessed as inhibition of acetylcholine-induced current by measuring recovery at 10 uM preincubated with compound for 5 mins followed by measured after 20 mins washout by electrophysiological recording; assay type: cell-based; set-up: scale not given: the % may be the effect or the level left; details: time 25.0 min
[20] = molecular target: Neuronal acetylcholine receptor; alpha4/beta4 (Rattus norvegicus) (UniProt P09483+P12392); assay: Inhibition of rat alpha4/beta4 nAChR expressed in Stage V-VI Xenopus laevis Oocytes assessed as inhibition of acetylcholine-induced current at 10 uM in presence of acetylcholine by electrophysiological recording relative to control; assay type: cell-based; details: Oocyte
[21] = molecular target: Neuronal acetylcholine receptor; alpha4/beta4 (Rattus norvegicus, UniProt P09483+P12392); assay: Inhibition of rat alpha4/beta4 nAChR expressed in Stage V-VI Xenopus laevis Oocytes assessed as inhibition of acetylcholine-induced current in presence of acetylcholine by electrophysiological recording; assay type: cell-based, Oocyte
Sequence of Neuronal acetylcholine receptor; alpha4/beta4 (P09483 whole entry): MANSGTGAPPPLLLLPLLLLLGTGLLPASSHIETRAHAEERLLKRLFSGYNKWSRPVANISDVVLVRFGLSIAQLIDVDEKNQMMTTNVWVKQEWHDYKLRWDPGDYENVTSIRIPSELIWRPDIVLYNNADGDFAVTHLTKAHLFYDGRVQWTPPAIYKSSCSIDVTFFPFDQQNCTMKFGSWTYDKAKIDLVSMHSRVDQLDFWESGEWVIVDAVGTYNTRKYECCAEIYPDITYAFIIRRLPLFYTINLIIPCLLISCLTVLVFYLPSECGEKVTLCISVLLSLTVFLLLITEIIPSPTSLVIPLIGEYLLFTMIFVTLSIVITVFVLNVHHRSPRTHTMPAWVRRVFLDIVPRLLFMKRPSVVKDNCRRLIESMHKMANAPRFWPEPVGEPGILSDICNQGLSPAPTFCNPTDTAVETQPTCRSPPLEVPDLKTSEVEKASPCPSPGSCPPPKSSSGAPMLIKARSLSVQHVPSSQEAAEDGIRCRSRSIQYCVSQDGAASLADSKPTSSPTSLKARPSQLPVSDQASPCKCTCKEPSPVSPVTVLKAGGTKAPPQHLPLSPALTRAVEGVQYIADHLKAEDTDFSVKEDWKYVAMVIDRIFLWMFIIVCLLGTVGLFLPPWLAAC
Sequence of Neuronal acetylcholine receptor; alpha4/beta4 (P12392 whole entry): as the sequence (P12392 whole entry) above

[22] = molecular target: Neuronal acetylcholine receptor; alpha3/beta4 (Rattus norvegicus, UniProt P04757+P12392); assay: Inhibition of rat alpha3/beta4 nAChR expressed in Stage V-VI Xenopus laevis Oocytes assessed as inhibition of acetylcholine-induced current in presence of acetylcholine by electrophysiological recording; assay type: cell-based, Oocyte
Sequence of Neuronal acetylcholine receptor; alpha3/beta4 (P04757 whole entry): as the sequence (P04757 whole entry) above
Sequence of Neuronal acetylcholine receptor; alpha3/beta4 (P12392 whole entry): as the sequence (P12392 whole entry) above

[23] = molecular target: Neuronal acetylcholine receptor; alpha3/beta2 (Rattus norvegicus, UniProt P04757+P12390); assay: Inhibition of rat alpha3/beta2 nAChR expressed in Stage V-VI Xenopus laevis Oocytes assessed as inhibition of acetylcholine-induced current in presence of acetylcholine by electrophysiological recording; assay type: cell-based, Oocyte
Sequence of Neuronal acetylcholine receptor; alpha3/beta2 (P04757 whole entry): as the sequence (P04757 whole entry) above
Sequence of Neuronal acetylcholine receptor; alpha3/beta2 (P12390 whole entry): as the sequence (P12390 whole entry) above

[24] = molecular target: Neuronal acetylcholine receptor; alpha2/beta4 (Rattus norvegicus) (UniProt P12389+P12392); assay: Inhibition of rat alpha2/beta4 nAChR expressed in Stage V-VI Xenopus laevis Oocytes assessed as inhibition of acetylcholine-induced current at 10 uM in presence of acetylcholine by electrophysiological recording relative to control; assay type: cell-based; details: Oocyte
[25] = Inhibition of rat alpha6/alpha3 D152A mutant beta4 nAChR expressed in Stage V-VI Xenopus laevis Oocytes assessed as inhibition of acetylcholine-induced current in presence of acetylcholine by electrophysiological recording; assay type: cell-based; details: Oocyte

## CC(C)[C@H](NC(=O)[C@@H]1CCCN1C(=O)[C@H](CC(N)=O)NC(=O)[C@H](C)NC(=O)[C@H](CS)NC(=O)[C@H](CS)NC(=O)[C@@H](N)CCCNC(=N)N)C(=O)N[C@@H](CS)C(=O)N[C@@H](CC(N)=O)C(=O)NCC(=O)N[C@@H](CCCCN)C(=O)N[C@@H](Cc1cnc[nH]1)C(=O)N[C@@H](CS)C(N)=O (H-RCCANPVCNGKHC-NH2)
[1]
  inhibition: < 50%
[2]
  IC50: 19 nM
[3]
  inhibition: < 50%
Oocyte [4]
  inhibition: 92.7%
Rattus norvegicus [5]
  inhibition: 49.3%
[6]
  inhibition: < 50%
[7]
  inhibition: < 50%
[8]
  IC50: > 10000 nM
[9]
  inhibition: 85.5%
Oocyte [10]
  Activity: 70%
[11]
  IC50: 50.8 nM
[12]
  Activity: 96%
[13]
  IC50: 959 nM
Oocyte [14]
  inhibition: 43.2%
[15]
  TIME: 0.333 h
Rattus norvegicus [16]
  Ratio IC50: 7
Oocyte [17]
  TIME: 0.0167 h
[18]
  IC50: 134 nM
Oocyte [19]
  Activity: 66.3%
[20]
  inhibition: < 50%
[21]
  IC50: > 10000 nM
[22]
  IC50: > 10000 nM
[23]
  IC50: > 10000 nM
[24]
  inhibition: < 50%
[25]
  IC50: 470 nM
